Experimental data reported in US8211646B1, “Methods of treating ovarian cancer by modulating SnoN” (University of South Florida, priority 2008, dated 2012).
Peptide text beside a SMILES is read from it. * marks the point of attachment. Cbz = O=C(OCc1ccccc1)*

How the values were obtained:
Assay type in all cases: cell-based
[1] = tested on: TAK1, SMAD2/3, TGFβRII, AKT, phospho-SMAD2; test: Western analysis of other TGFβ signaling mediators
Procedure: (§1) Proteins were resolved on an 8%, 12%, or 15% SDS-PAGE gel (as appropriate) and electrophoretically transferred to polyvinyldifluoride (PVDF) membranes. After blocking with 5% (w/v) milk in TBST (Tris-Buffered Saline containing 0.1% Tween-20) for one hour at room temperature, membranes were incubated with primary antibodies (at appropriate dilution) overnight at 4° C., followed by extensive washing and incubation for 1 hour with the appropriate horseradish peroxidase-conjugated secondary antibodies (BioRad, Hercules, Calif.). Blots were washed extensively. A rabbit polyclonal EVI1 antibody was obtained (1:3000 dilution, St. Jude's Children's Hospital, Memphis, Tenn.). SnoN rabbit polyclonal (1:1000 dilution), PML, and p21 SMURF2 rabbit polyclonal (1:500 dilution), MRP1 mouse monoclonal (1:500 dilution) and GAPDH mouse monoclonal (1:250 dilution) antibodies were obtained from Santa Cruz Biotechnology (Santa Cruz, Calif.). TGFβRII rabbit polyclonal (1:1000 dilution) antibody was obtained from Strategic Diagnostics (Newark, Del.). Smad2/3 rabbit polyclonal (1:1000 dilution), Beclin-1 rabbit polyclonal (1:1000 dilution), AKT rabbit polyclonal (1:1000 dilution), TAK1 rabbit polyclonal (1:1000 dilution), PARP rabbit polyclonal (1:1000 dilution), Beclin-1 rabbit polyclonal (1:1000 dilution), caspase-3 rabbit polyclonal (1:1000) which detects the pro-caspase form, and ATG5 rabbit polyclonal (1:1000 dilution), LC3-II rabbit polyclonal (1:1000 dilution) antibodies were obtained from Cell Signaling Technology (Danvers, Mass.). The HSP27 mouse monoclonal (1:1000 dilution) antibody was obtained from Stressgen (Ann Arbor, Mich.). Blots were developed using chemiluminescence substrates (Amersham Piscataway, N.J. or BioRad, Hercules, Calif.). Monoclonal PAI-1 antibody was obtained from BD Pharmingen. PSMAD2, total SMAD2/3, p-ERK, p-AKT, and total AKT antibodies were obtained from Cell Signaling Technology. A monoclonal antibody against Arkadia was obtained from Abnova (Taiwan).
(§2) Densitometric analysis was performed using the HP Scanjet 5590 and the Image J program (Image Processing and Analysis in Java, NIH Image Software). Bands were selected and the intensity values were normalized to those for GAPDH. The values are presented as fold-changes relative to control siRNA treated cells.
(§3) The clinical inhibitors As2O3, geldanamycin (17-AAG) (dissolved in dimethylsulfoxide [DMSO]), and MG132 (dissolved in DMSO) were obtained from Sigma-Aldrich (St. Louis, Mo.), Fisher Scientific (Pittsburgh, Pa.), and Alexis Biochemicals (Farmingdale, N.Y.), respectively. N-acetyl-L-cysteine (NAC; dissolved in media) and Bortezomib (PS-341; dissolved in DMSO) were obtained from Fisher Scientific. 3-Methyladenine (3-MA; dissolved in media) was obtained from MP Biomedicals (Solon, Ohio). Tiron (4,5-Dihydroxy-1,3-benzenedisulfonic acid, dissolved in media) was obtained from Fisher Scientific. zVAD-fmk (dissolved in DMSO) and bafilomycin A (dissolved in DMSO) was obtained from Axxora LLC (San Diego, Calif.). Bovine catalase was obtained from Sigma-Aldrich. HBED and Mn TBAP was obtained from ENZO Life Sciences (Farmingdale, N.Y.). Ovarian cells were plated in 6-well plates at 250,000 cells per well and grown in complete medium. The following day, the cells were treated with 5 μM MG132, As2O3 (between 2-50 μM), 17-AAG (between 2-50 μM), NAC (Fisher Scientific, between 25 μM to 1 mM), Tiron (between 25 μM to 1 mM), 3-MA (0.1 mM to 10 mM), or zVAD-fmk (25 μM to 100 μM). For control cells, DMSO (a final concentration of <0.5%) was added to compare appropriately to drugs dissolved in DMSO. After the appropriate incubation time (6 or 18 hours), cell lysates were collected, protein quantified, and SDS-PAGE/western analysis was performed. In addition, for selected studies, RNA was isolated, quantified, and used for qPCR analysis.

[2] = tested on: SnoN; test: Western analysis of SnoN protein levels; parameters: SnoN basal protein levels: dose or concentration left out as unconfirmed
Procedure: as §1, §2
as §3, with “The following day, the cells were treated with 5 μM MG132, As2O3 (between 2-50 μM), 17-AAG (between 2-50 μM), NAC (Fisher Scientific, between 25 μM to 1 mM), Tiron (between 25 μM to 1 mM), 3-MA (0.1 mM to 10 mM), or zVAD-fmk (25 μM to 100 μM).” left out

[3] = tested on: EVI1 and TGFβRII RNA; test: qPCR of EVI1 and TGFβRII RNA levels; settings: 5 μM MG132, 18 hours
Procedure: RNA was isolated using the RNeasy Mini Kit (Qiagen, Valencia, Calif.) from normal, benign, stage I-IV ovarian patient samples and quantitative PCR was performed. A one-step RT-PCR Taqman master mix from Applied Biosystems (Foster City, Calif.) and primers for genes in the 3q26.2 amplicon were obtained using Genebank sequences as well as from Assays on Demand (Hs00180524_m1 (SnoN/SkiL)), with the following primers and probe sets.
EVI1 Exon III—(detects both EVI1 and MDS1/EVI1):
Primers/probe sequences for SnoN (Hs00180524_m1), TGFβRII (Hs00234253_m1), and LC3 (Hs00261291_m1) were obtained from Applied Biosystems (Assays by Design).
mRNA levels were determined using the One-Step-Plus Applied Biosystems Detection System or ABI PRISM 7700 Sequence Detection System using β-actin as a reference. […] 95° C. for 15 s followed by 60° C. for 1 min Using the correlative method, RNA-fold change in expression was calculated as Ct of gene—Ct of β-actin to generate ΔCt from which ΔCt of the normal sample was subtracted. […]
The clinical inhibitors As2O3, geldanamycin (17-AAG) (dissolved in dimethylsulfoxide [DMSO]), and MG132 (dissolved in DMSO) were obtained from Sigma-Aldrich (St. Louis, Mo.), Fisher Scientific (Pittsburgh, Pa.), and Alexis Biochemicals (Farmingdale, N.Y.), respectively. […] In addition, for selected studies, RNA was isolated, quantified, and used for qPCR analysis.

[4] = tested on: EVI1 forms (MDS1/EVI1, EVI1, EVI1^Del190-515); settings: combination with As2O3; HEY, OVCA429
Procedure: as §1, §2, §3

CC(C)C[C@@H](C=O)NC(=O)[C@H](CC(C)C)NC(=O)[C@H](CC(C)C)NC(=O)OCc1ccccc1 [MG132] (Cbz-Leu-Leu-Leu-aldehyde)
AKT, SMAD2/3, and TGFβRII protein levels ([1]; MG132 at 18 hours): significantly decreased | TGFβRII protein in drug-treated cells with added proteosome inhibitor ([1]; combination with As2O3 (MG132: 6 hour drug treatment)): recovered | SnoN basal protein levels ([2]; MG132, HEY and OVCA429, threshold between 3 and 6 h): marked increase | SnoN protein in drug-treated cells with added proteosome inhibitor ([2]; combination with As2O3): further increased | EVI1 and TGFβRII RNA levels [3]: markedly reduce | EVI1 protein in As2O3-treated cells with added proteosome inhibitor [4]: recovered
